A value given as a limit tells only on which side of the number the result lay.

Data on 28 compounds can be found in US20230365592A1 (Agios Pharmaceuticals, Inc., priority 2022, published 2023).

The first assay addresses T1, human PAH with the R408W mutation (Homo sapiens, UniProt P00439, R408W).
T1 construct: expressed in transfected cells
T1 sequence (P00439 1-452 R408W): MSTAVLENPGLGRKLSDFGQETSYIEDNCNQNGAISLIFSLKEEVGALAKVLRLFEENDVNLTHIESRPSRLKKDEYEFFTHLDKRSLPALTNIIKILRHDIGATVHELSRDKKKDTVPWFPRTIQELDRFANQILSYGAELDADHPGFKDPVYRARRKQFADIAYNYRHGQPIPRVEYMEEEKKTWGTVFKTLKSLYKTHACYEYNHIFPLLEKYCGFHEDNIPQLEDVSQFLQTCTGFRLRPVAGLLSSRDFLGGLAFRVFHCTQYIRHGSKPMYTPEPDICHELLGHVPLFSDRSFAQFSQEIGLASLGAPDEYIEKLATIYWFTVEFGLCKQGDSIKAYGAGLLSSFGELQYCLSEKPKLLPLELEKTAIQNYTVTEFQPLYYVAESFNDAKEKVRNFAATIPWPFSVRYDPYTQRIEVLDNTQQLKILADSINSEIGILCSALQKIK
Nature of the assay: Cell Based Phenylalanine Flux Assay.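 Note: after compound treatment, cells received sepiapterin plus isotope-labelled Phenylalanine for 4 hours, then labelled Tyrosine in the medium was quantified, 10-point 2-fold dilution series run in duplicate.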 As to conditions: A375 cells expressing R408W PAH; 24 hrs with compound, then 20 µM sepiapterin and 800 µM 13C9,15N-Phenylalanine for 4 hours; 13C-Tyrosine by LC-MS; average where tested multiple times; read-out: AC50.
On to `Fc1ccc(-c2nnc(N3CCc4[nH]cnc4[C@@H]3c3cc4ccccn4n3)o2)nc1` (single isomer, unassigned), for which the concentration at half-maximal activity (AC50) was more than 5 µM. `Cn1cc(-c2ccc3c(C(=O)N4CCc5[nH]cnc5[C@@H]4c4cc5ccccn5n4)cnn3c2)cn1` (single isomer, unassigned): the AC50 is 1 to 5 µM. Same read-out and setting: with `Cc1cccc2cc(C3c4nc[nH]c4CCN3C(=O)c3nc(C4CC4)nn3C)nn12` (stereo not shown) the figure was 1 to 5 µM; with `COCc1ccc2c(C(=O)N3CCc4[nH]cnc4[C@H]3c3cc4cccc(F)n4n3)cnn2c1` (single isomer, unassigned), 1 to 5 µM. Same read-out and setting: with `Cc1nc(C(C)O)oc1C(=O)N1CCc2[nH]cnc2C1c1cc2c(F)cccn2n1` (stereo not shown) the figure was 1 to 5 µM.

Still in this assay, the particulars now being: A375 cells expressing human PAH R408W; 24 hrs compound incubation; 13C-Tyrosine by LC-MS; average where tested multiple times; read-out: AC50.
For `Fc1cccc(N2CCc3[nH]cnc3[C@@H]2c2cc3c(F)cccn3n2)n1` [Example 1954, (R)-4-(4-fluoropyrazolo[1,5-a]pyridin-2-yl)-5-(6-fluoropyridin-2-yl)-4,5,6,7-tetrahydro-1H-imidazo[4,5-c]pyridine], the concentration at half-maximal activity (AC50) was in the range of 1 to 5 µM. As to `O=C(c1cnc(-c2ccccn2)o1)N1CCc2[nH]cnc2[C@H]1c1cc2c(C(F)F)cccn2n1` [Example 2034, (S)-(4-(4-(difluoromethyl)pyrazolo[1,5-a]pyridin-2-yl)-1,4,6,7-tetrahydro-5H-imidazo[4,5-c]pyridin-5-yl)(2-(pyridin-2-yl)oxazol-5-yl)methanone], the half-maximal activity concentration (AC50) lay within 0.5 to 1 µM. With `FC(F)(F)Oc1cccn2nc([C@@H]3c4nc[nH]c4CCN3c3ncc(C(F)(F)F)cn3)cc12` [Example 2316, (S)-4-(4-(trifluoromethoxy)pyrazolo[1,5-a]pyridin-2-yl)-5-(5-(trifluoromethyl)pyrimidin-2-yl)-4,5,6,7-tetrahydro-1H-imidazo[4,5-c]pyridine], the half-maximal activity concentration (AC50) is less than 0.5 µM. Consider `Cn1ccc(-c2ncc(C(=O)N3CCc4[nH]cnc4[C@H]3c3cc4c(F)cccn4n3)o2)n1` [Example 2505, (S)-(4-(4-fluoropyrazolo[1,5-a]pyridin-2-yl)-1,4,6,7-tetrahydro-5H-imidazo[4,5-c]pyridin-5-yl)(2-(1-methyl-1H-pyrazol-3-yl)oxazol-5-yl)methanone], for which the AC50 lay in the range of 1 to 5 µM. With `Fc1ccc(-c2nnc(N3CCc4[nH]cnc4[C@H]3c3cc4ccccn4n3)o2)cc1` [Example 1861, (S)-2-(4-fluorophenyl)-5-(4-(pyrazolo[1,5-a]pyridin-2-yl)-1,4,6,7-tetrahydro-5H-imidazo[4,5-c]pyridin-5-yl)-1,3,4-oxadiazole], the half-maximal activity concentration (AC50) was less than 0.5 µM.

`Cc1cccn2nc([C@@H]3c4nc[nH]c4CCN3C(=O)c3cnc(C4CC4)o3)cc12` [Example 1918, (S)-(2-cyclopropyloxazol-5-yl)(4-(4-methylpyrazolo[1,5-a]pyridin-2-yl)-1,4,6,7-tetrahydro-5H-imidazo[4,5-c]pyridin-5-yl)methanone]: the half-maximal activity concentration (AC50) is 0.5 to 1 µM. Still for that read-out and setting: with `CC(C)(F)c1ncc(C(=O)N2CCc3[nH]cnc3[C@H]2c2cc3c(C(F)(F)F)cccn3n2)o1` [Example 2144, (S)-(2-(2-fluoropropan-2-yl)oxazol-5-yl)(4-(4-(trifluoromethyl)pyrazolo[1,5-a]pyridin-2-yl)-1,4,6,7-tetrahydro-5H-imidazo[4,5-c]pyridin-5-yl)methanone] the figure was less than 0.5 µM; with `CC(C)c1nnc(N2CCc3[nH]cnc3[C@H]2c2cc3c(C(F)(F)F)cccn3n2)o1` [Example 2305, (S)-2-isopropyl-5-(4-(4-(trifluoromethyl)pyrazolo[1,5-a]pyridin-2-yl)-1,4,6,7-tetrahydro-5H-imidazo[4,5-c]pyridin-5-yl)-1,3,4-oxadiazole], 0.5 to 1 µM. Same read-out and setting: with `CC(F)(F)c1nnc(N2CCc3[nH]cnc3[C@H]2c2cc3c(F)cccn3n2)o1` [Example 2197, (S)-2-(1,1-difluoroethyl)-5-(4-(4-fluoropyrazolo[1,5-a]pyridin-2-yl)-1,4,6,7-tetrahydro-5H-imidazo[4,5-c]pyridin-5-yl)-1,3,4-oxadiazole] the figure was 0.5 to 1 µM. The same measure, in the same setting: with `CC(C)(F)c1nnc(C(=O)N2CCc3[nH]cnc3[C@H]2c2cc3c(C4CC4)cccn3n2)o1` [Example 2061, (S)-(4-(4-cyclopropylpyrazolo[1,5-a]pyridin-2-yl)-1,4,6,7-tetrahydro-5H-imidazo[4,5-c]pyridin-5-yl)(5-(2-fluoropropan-2-yl)-1,3,4-oxadiazol-2-yl)methanone] the figure was 0.5 to 1 µM.

The same assay, now with this note: A375 cells expressing human R408W PAH; 24 hrs compound incubation; 13C-Tyrosine by LC-MS; average where tested multiple times; read-out: AC50.
With `Cc1ccc(-c2nnc(C(=O)N3CCc4[nH]cnc4[C@H]3c3cc4c(C)cccn4n3)o2)nc1` [Example 871, (S)-(4-(4-methylpyrazolo[1,5-a]pyridin-2-yl)-6,7-dihydro-1H-imidazo[4,5-c]pyridin-5(4H)-yl)(5-(5-methylpyridin-2-yl)-1,3,4-oxadiazol-2-yl)methanone], the AC50 is less than 0.5 µM. On the same count and under the same terms, with `Cc1cccn2nc([C@@H]3c4nc[nH]c4CCN3C(=O)c3cnn4cc(-c5ccn(C)n5)ccc34)cc12` [Example 1621, (S)-(6-(1-methyl-1H-pyrazol-3-yl)pyrazolo[1,5-a]pyridin-3-yl)(4-(4-methylpyrazolo[1,5-a]pyridin-2-yl)-6,7-dihydro-1H-imidazo[4,5-c]pyridin-5(4H)-yl)methanone] the figure was less than 0.5 µM. Consider `Cc1ncoc1C(=O)N1CCc2[nH]cnc2[C@@H]1c1cc2c(F)cccn2n1` [Example 775, (R)-(4-(4-fluoropyrazolo[1,5-a]pyridin-2-yl)-6,7-dihydro-1H-imidazo[4,5-c]pyridin-5(4H)-yl)(4-methyloxazol-5-yl)methanone], for which the concentration at half-maximal activity (AC50) was more than 5 µM. Consider `O=C(c1cnn2cc(C3CC3)ccc12)N1CCc2[nH]cnc2[C@@H]1c1cc2c(C(F)F)cccn2n1` [Example 1743, (R)-(6-cyclopropylpyrazolo[1,5-a]pyridin-3-yl)(4-(4-(difluoromethyl)pyrazolo[1,5-a]pyridin-2-yl)-6,7-dihydro-1H-imidazo[4,5-c]pyridin-5(4H)-yl)methanone], for which the half-maximal activity concentration (AC50) lay within 1 to 5 µM. Turning to `COc1cccn2nc([C@@H]3c4nc[nH]c4CCN3C(=O)c3ccnn3-c3ccccn3)cc12` [Example 898, (S)-(4-(4-methoxypyrazolo[1,5-a]pyridin-2-yl)-6,7-dihydro-1H-imidazo[4,5-c]pyridin-5(4H)-yl)(1-(pyridin-2-yl)-1H-pyrazol-5-yl)methanone], the concentration at half-maximal activity (AC50) was less than 0.5 µM.

As to `Cn1ccc(-c2nnc(C(=O)N3CCc4[nH]cnc4[C@@H]3c3cc4c(F)cccn4n3)o2)n1` [Example 731, (R)-(4-(4-fluoropyrazolo[1,5-a]pyridin-2-yl)-6,7-dihydro-1H-imidazo[4,5-c]pyridin-5(4H)-yl)(5-(1-methyl-1H-pyrazol-3-yl)-1,3,4-oxadiazol-2-yl)methanone], the AC50 was more than 5 µM. Same read-out and setting: with `Cc1cccn2nc([C@H]3c4nc[nH]c4CCN3C(=O)c3oc(C(C)(C)O)nc3C(F)F)cc12` [Example 737, (R)-(4-(difluoromethyl)-2-(2-hydroxypropan-2-yl)oxazol-5-yl)(4-(4-methylpyrazolo[1,5-a]pyridin-2-yl)-6,7-dihydro-1H-imidazo[4,5-c]pyridin-5(4H)-yl)methanone] the figure was 1 to 5 µM.

For the compound `Cc1nc(C(C)(C)F)oc1C(=O)N1CCc2[nH]cnc2[C@H]1c1cc2cccc(F)n2n1` [Example 1278, (S)-(2-(2-fluoropropan-2-yl)-4-methyloxazol-5-yl)(4-(7-fluoropyrazolo[1,5-a]pyridin-2-yl)-6,7-dihydro-1H-imidazo[4,5-c]pyridin-5(4H)-yl)methanone], the concentration at half-maximal activity (AC50) is less than 0.5 µM. Still for that read-out and setting: with `O=C(c1nnc(-c2cnn(C(F)F)c2)o1)N1CCc2[nH]cnc2[C@H]1c1cc2c(OC(F)(F)F)cccn2n1` [Example 1782, (S)-(5-(1-(difluoromethyl)-1H-pyrazol-4-yl)-1,3,4-oxadiazol-2-yl)(4-(4-(trifluoromethoxy)pyrazolo[1,5-a]pyridin-2-yl)-6,7-dihydro-1H-imidazo[4,5-c]pyridin-5(4H)-yl)methanone] the figure was 0.5 to 1 µM. For the compound `CC(C)(O)c1nc(C(F)F)c(C(=O)N2CCc3[nH]cnc3[C@H]2c2cc3ccccn3n2)o1` [Example 670, (S)-(4-(difluoromethyl)-2-(2-hydroxypropan-2-yl)oxazol-5-yl)(4-(pyrazolo[1,5-a]pyridin-2-yl)-6,7-dihydro-1H-imidazo[4,5-c]pyridin-5(4H)-yl)methanone], the AC50 is less than 0.5 µM. Take `COc1ccc(-c2nnc(C(=O)N3CCc4[nH]cnc4[C@@H]3c3cc4cccc(C(F)F)n4n3)o2)nc1` [Example 1579, (R)-(4-(7-(difluoromethyl)pyrazolo[1,5-a]pyridin-2-yl)-6,7-dihydro-1H-imidazo[4,5-c]pyridin-5(4H)-yl)(5-(5-methoxypyridin-2-yl)-1,3,4-oxadiazol-2-yl)methanone]: the concentration at half-maximal activity (AC50) is more than 5 µM. Turning to `O=C(c1nnc(-c2ccccn2)o1)N1CCc2[nH]cnc2[C@@H]1c1cc2cccc(F)n2n1` [Example 974, (R)-(4-(7-fluoropyrazolo[1,5-a]pyridin-2-yl)-6,7-dihydro-1H-imidazo[4,5-c]pyridin-5(4H)-yl)(5-(pyridin-2-yl)-1,3,4-oxadiazol-2-yl)methanone], the half-maximal activity concentration (AC50) was in the range of 1 to 5 µM. With `O=C(c1nnc(-c2ccccn2)o1)N1CCc2[nH]cnc2[C@@H]1c1cc2c(Cl)cccn2n1` [Example 734, (R)-(4-(4-chloropyrazolo[1,5-a]pyridin-2-yl)-6,7-dihydro-1H-imidazo[4,5-c]pyridin-5(4H)-yl)(5-(pyridin-2-yl)-1,3,4-oxadiazol-2-yl)methanone], the AC50 was more than 5 µM.

What is called AC50 is the concentration giving half of the maximal activity seen.
